In US9249145B2, “Heterocyclic derivatives of pyrazol-4-yl-pyrrolo[2,3-d]pyrimidines as janus kinase inhibitors” (Incyte Holdings Corporation, priority 2009, dated 2016):
Structures can show the parent of a compound that is named as a salt. Where two headings read alike, the source gives them in different places.

What was measured:
[1] = biological target: T1, human JAK1 (a.a. 837-1142) (Homo sapiens, UniProt P23458); test: In vitro JAK kinase assay (HTRF, phosphorylation of biotinylated peptide), JAK1; type: biochemical; settings: 1 mM ATP
T1 construct: The catalytic domains of human JAK1 (a.a. 837-1142); His tag (N); made in house; host or cells: insect cells (baculovirus)
T1 sequence (P23458 849-1154): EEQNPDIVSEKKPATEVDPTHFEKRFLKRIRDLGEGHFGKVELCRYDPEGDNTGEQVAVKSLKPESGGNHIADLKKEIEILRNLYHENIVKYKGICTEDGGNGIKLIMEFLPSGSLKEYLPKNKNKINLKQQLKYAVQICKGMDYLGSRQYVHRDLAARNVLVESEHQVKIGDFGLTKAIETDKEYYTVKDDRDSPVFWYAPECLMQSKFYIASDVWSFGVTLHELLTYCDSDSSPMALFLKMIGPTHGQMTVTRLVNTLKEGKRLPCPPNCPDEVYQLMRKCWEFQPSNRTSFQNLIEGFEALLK
How it was run: (§1)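 His-tagged catalytic domains expressed in baculovirus/insect cells; biotinylated peptide (500 nM) phosphorylation in 50 mM Tris pH 7.8, 100 mM NaCl, 5 mM DTT, 0.01% BSA, 1 h room temperature. ATP at Km (JAK1 90 μM, JAK2 30 μM) or 1 mM. EDTA stop, Eu-Py20/SA-APC HTRF read; IC50.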

[2] = biological target: T2, Jak2 (a.a. 828-1132) (Homo sapiens, UniProt O60674); test: In vitro JAK kinase assay (HTRF, phosphorylation of biotinylated peptide), JAK2; type: biochemical; settings: 1 mM ATP
T2 construct: Jak2 (a.a. 828-1132); His tag (N); made in house; host or cells: insect cells (baculovirus)
T2 sequence (O60674 828-1132): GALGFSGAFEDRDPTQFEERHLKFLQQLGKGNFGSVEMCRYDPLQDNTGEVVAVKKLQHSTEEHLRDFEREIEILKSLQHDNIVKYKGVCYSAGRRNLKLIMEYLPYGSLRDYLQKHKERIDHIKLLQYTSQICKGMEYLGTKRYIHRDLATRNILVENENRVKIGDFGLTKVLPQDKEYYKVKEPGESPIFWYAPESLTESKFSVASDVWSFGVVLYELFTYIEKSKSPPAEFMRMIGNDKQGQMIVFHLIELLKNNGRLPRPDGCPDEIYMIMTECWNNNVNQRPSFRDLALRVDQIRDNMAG
How it was run: as §1

[3] = Examples 92-162, read-out: JAK1 IC50 (nM) @ 1 mM ATP
[4] = Examples 92-162, read-out: JAK2 IC50 (nM) @ 1 mM ATP
[5] = Examples 12-91, read-out: JAK1 IC50 (nM) @ 1 mM ATP
[6] = Examples 12-91, read-out: JAK2 IC50 (nM) @ 1 mM ATP

Structure (SMILES) | IC50 [1, 3] | IC50 [2, 4] | IC50 [1, 5] | IC50 [2, 6] | other results
COCC1CN(C(=O)c2ccc(C#N)cc2F)CCN1CC(CC#N)n1cc(-c2ncnc3[nH]ccc23)cn1 (single isomer, unassigned) [Example 157—peak 1, 4-{[4-{3-cyano-2-[4-(7H-pyrrolo[2,3-d]pyrimidin-4-yl)-1H-pyrazol-1-yl]propyl}-3-(methoxymethyl)piperazin-1-yl]carbonyl}-3-fluorobenzonitrile] | > 100 nM | > 100 nM | – | – | –
N#CCC(CN1CCCN(S(=O)(=O)c2ccccc2C(F)(F)F)CC1)n1cc(-c2ncnc3[nH]ccc23)cn1 (centres unmarked) [Example 109, 3-[4-(7H-pyrrolo[2,3-d]pyrimidin-4-yl)-1H-pyrazol-1-yl]-4-(4-{[2-(trifluoromethyl)phenyl]sulfonyl}-1,4-diazepan-1-yl)butanenitrile] | 20 to 50 nM | > 100 nM | – | – | –
N#CCC(CN1CCN(C(=O)Nc2cccc(C(F)(F)F)c2F)CC1)n1cc(-c2ncnc3[nH]ccc23)cn1 (centres unmarked) [Example 73, 4-(2-(4-(7H-pyrrolo[2,3-d]pyrimidin-4-yl)-1H-pyrazol-1-yl)-3-cyanopropyl)-N-(2-fluoro-3-(trifluoromethyl)phenyl)piperazine-1-carboxamide] | – | – | 10 to 50 nM | > 100 nM | –
CC(CN1CCN(S(=O)(=O)c2ccn(C)n2)CC1)n1cc(-c2ncnc3[nH]ccc23)cn1 (centres unmarked) [Example 11, 4-[1-(1-methyl-2-{4-[(1-methyl-1H-pyrazol-3-yl)sulfonyl]piperazin-1-yl}ethyl)-1H-pyrazol-4-yl]-7H-pyrrolo[2,3-d]pyrimidine bis(phosphate) Salt] | – | – | – | – | IC50 ([1]; Examples 1-11, read-out: IC50 (nM) @ 1 mM ATP JAK1): < 10 nM; IC50 ([2]; Examples 1-11, read-out: IC50 (nM) @ 1 mM ATP JAK2): > 20 nM

The next lines start with results.

IC50 [1, 3] | IC50 [2, 4] | IC50 [1, 5] | IC50 [2, 6] | Structure (SMILES) | other results
– | – | < 10 nM | 10 to 50 nM | N#CCC(CN1CCN(C(=O)c2ccc(F)cc2Cl)CC1)n1cc(-c2ncnc3[nH]ccc23)cn1 (centres unmarked) [Example 39, 3-(4-(7H-pyrrolo[2,3-d]pyrimidin-4-yl)-1H-pyrazol-1-yl)-4-(4-(2-chloro-4-fluorobenzoyl)piperazin-1-yl)butanenitrile] | –
20 to 50 nM | > 100 nM | – | – | N#CCC(CN1CCCN(C(=O)c2ccc(N)cc2F)CC1)n1cc(-c2ncnc3[nH]ccc23)cn1 (centres unmarked) [Example 104, 4-[4-(4-amino-2-fluorobenzoyl)-1,4-diazepan-1-yl]-3-[4-(7H-pyrrolo[2,3-d]pyrimidin-4-yl)-1H-pyrazol-1-yl]butanenitrile] | –
– | – | < 10 nM | 10 to 50 nM | N#CCC(CN1CCN(C(=O)c2ccc(C(F)F)cc2F)CC1)n1cc(-c2ncnc3[nH]ccc23)cn1 (centres unmarked) [Example 14, 4-{4-[4-(difluoromethyl)-2-fluorobenzoyl]piperazin-1-yl}-3-[4-(7H-pyrrolo[2,3-d]pyrimidin-4-yl)-1H-pyrazol-1-yl]butanenitrile] | –
